# Assay results taken from PMC6522524 (Nature Communications, 2019).
# Where “and” joins values, the source holds several entries; their conditions need not be identical. Equal entries are not always repeated. Where two headings read alike, the source gives them in different places.
# Experiments:
# [1] = test system: HBV pgRNA/precore RNA in HepG2.2.15 cells; assay type: cell-based, Hepatitis B virus
# Procedure: Fig. 1 Effect of FDA-approved compounds on HBV replication. a Schematic depiction of the primary screening analysis. HepG2.2.15 cells, which were stably transfected with HBV replicons, were treated with 978 FDA-approved drugs (1 μM) for 3 days. Entecavir (ETV) (1 μM) served as positive control. […] Quantitative RT-PCR was performed after 6 days of incubation. d Effect of the 19 candidates on intracellular HBV capsid assembly. Huh-7 cells were transfected with pCDNA3-Core and exposed after 12 h to the 19 candidates (1 μM) for 36 h. The cells were lysed and assembled HBV core particles were isolated by sucrose step gradient ultracentrifugation, resolved on 1% agarose gels, and subjected to immunoblot analysis with anti-HBV core antibody.
# Quantitative RT-PCR with primers that detect three HBV regions (R1, R2, and R3, Supplementary Table 1) was used to measure HBV transcription. This RT-PCR detects pgRNA and precore RNA (3.5 kB), two HBV surface-encoding RNAs (2.5 kB and 2.1 kB), and HBx-encoding RNA (0.7 kB)[55]. PCR conditions were 95 °C for 10 min initially, then 50 cycles of 95 °C for 30 s, 60 °C for 60 s and 72 °C for 30 s, and finally 1 cycle of 95 °C for 60 s, 55 °C for 30 s and 95 °C for 30 s.
# (§1) a Schematic depiction of the R1, R2, and R3 regions of the HBV genome that were targeted by
# (§2) quantitative RT-PCR to quantitate the transcription of pgRNA, two HBV surface RNAs, and HBx RNA.
# (§3) pGL3/HBV pgRNA promoter or pGL3/HBV sRNA promoter. The data shown in (b – d) represent two
# in vitro [2] = conditions: human, Cell viability(%), HepG2.2.15, 10 μM, 6 days
# [3] = test system: HBV (pHBV1.2× adr) in transfected HepG2 cells; assay: microbe, parasite or virus in culture; assay type: cell-based, Hepatitis B virus; conditions: 10 μM, 6 days
# [4] = test system: HBV pgRNA promoter, HBV sRNA promoter; assay: Promoter analysis in HepG2 cells transfected with pGL3/HBV pgRNA promoter or pGL3/HBV sRNA promoter; assay type: cell-based, Hepatitis B virus; conditions: ETV
# Excerpt: as §1, §2, §3
# [5] = test system: HBV (pHBV1.2× adr) in transfected HepG2 cells; assay: microbe, parasite or virus in culture; assay type: cell-based, Hepatitis B virus; conditions: 10 μM, 6 days; remark: listed apart in the source
# [6] = test system: HBV (ayw subtype, genotype D) replicon in HepG2.2.15 cells; assay: microbe, parasite or virus in culture; assay type: cell-based, Hepatitis B virus; conditions: for activity at 10 µM: Hepatitis B virus, HepG2.2.15, 144 h, 6 days
# [7] = test system: HBV transcripts in HepG2 cells transfected with pHBV1.2×; assay: HBV transcription in HepG2 cells transfected with pHBV1.2×, quantitative RT-PCR; assay type: cell-based, Hepatitis B virus; conditions: Suppl. fig. 12c, ETV, Control = 1
# Procedure: Quantitative RT-PCR with primers that detect three HBV regions (R1, R2, and R3, Supplementary Table 1) was used to measure HBV transcription. This RT-PCR detects pgRNA and precore RNA (3.5 kB), two HBV surface-encoding RNAs (2.5 kB and 2.1 kB), and HBx-encoding RNA (0.7 kB)[55]. PCR conditions were 95 °C for 10 min initially, then 50 cycles of 95 °C for 30 s, 60 °C for 60 s and 72 °C for 30 s, and finally 1 cycle of 95 °C for 60 s, 55 °C for 30 s and 95 °C for 30 s. […]
# a Schematic depiction of the R1, R2, and R3 regions of the HBV genome that were targeted by quantitative RT-PCR to quantitate the transcription of pgRNA, two HBV surface RNAs, and HBx RNA. […]
# c Region 3 transcription in ciclopirox-treated (b) HepG2.2.15 cells and (c) HepG2 cells transfected with the pHBV1.2× plasmid. d The promoter analysis of ciclopirox-treated HepG2 cells transfected with pGL3/HBV pgRNA promoter or pGL3/HBV sRNA promoter. The data shown in (b – d) represent two
# [8] = test system: HBsAg in HepG2 cells transfected with pHBV1.2×; assay: Secreted HBsAg ELISA, HepG2 cells transfected with pHBV1.2×; assay type: cell-based, Hepatitis B virus; conditions: 10 μM, 6 days
# Procedure: (§4) Secreted HBsAg (f, i respectively) was quantified by ELISA.
# (§5) An HBsAg ELISA kit (KA0286, Abnova) was used to quantify HBsAg protein. Briefly, culture media were incubated in individual wells of the capture plates for 2 h. After washing, horseradish peroxidase-labeled rabbit anti-HBV surface antibody was added, followed by incubation for an additional 2 h. The substrate solution was added for 15–60 min and absorbance at 450 nm was measured.
# [9] = test system: HepG2 cells transfected with pHBV1.2×; conditions: HBV 1.2x adr, 10 μM, 6 days, Sample1-3
# in vitro [10] = conditions: human, Cell viability(%), HBV 1.2x adr, 10 μM, 6 days
# [11] = test system: HBsAg in HepG2.2.15 cells; assay: Secreted HBsAg ELISA, HepG2.2.15 cells; assay type: cell-based, Hepatitis B virus; conditions: 6 days
# Procedure: as §4, §5
smiles,measurement,setting,value
"C=C1[C@H](CO)[C@@H](O)C[C@@H]1n1cnc2c(=O)[nH]c(N)nc21 [ETV, entecavir]","Relative HBV pgRNA/precore RNA level (Folds), AVERAGE","[1]; Fig. 1c, 6 days",0.9573 Folds
same,"Relative HBV transcript R1, Sample1-3","[1]; Suppl. fig. 12b, R1, single samples, ETV, Control = 1",0.9164 and 1.011 and 1.015
same,"Relative HBV transcript R2, AVERAGE","[1]; Suppl. fig. 12b, R2, ETV, Control = 1",1.028
same,"Relative HBV transcript R3, AVERAGE","[1]; Suppl. fig. 12b, R3, ETV, Control = 1",0.9829
same,"Relative HBV transcript R3, Sample1-3","[1]; Suppl. fig. 12b, R3, single samples, ETV, Control = 1",0.9794 and 0.8641 and 0.8947
same,viability at 10 µM,in vitro [2]; AVERAGE,101%
same,viability at 10 µM,"in vitro [2]; individual samples, Sample1-3",101%
same,"Relative secreted HBV DNA level (Folds), AVERAGE",[3]; HBV 1.2x adr (figure 4g),0.03628 Folds
same,"Relative secreted HBV DNA level (Folds), individual samples",[3]; HBV 1.2x adr,0.356 Folds and 6.706e-5 Folds and 0.0005754 Folds
same,"Relative pgRNA promoter activity, AVERAGE","[4]; pgRNA promoter, Control = 1",1.039
same,"Relative pgRNA promoter activity, Sample1-3","[4]; pgRNA promoter, single samples",0.9019 and 1.084 and 1.13
same,"Relative sRNA promoter activity, AVERAGE","[4]; sRNA promoter, Control = 1",1.037
same,"Relative sRNA promoter activity, Sample1-3","[4]; sRNA promoter, single samples",0.9017 and 1.283 and 0.9275
same,"Relative intracellular HBV DNA level (Folds), AVERAGE",[5]; HBV 1.2x adr (figure 4h),0.1393 Folds
same,"Relative intracellular HBV DNA level (Folds), individual samples","[5]; HBV 1.2x adr, Sample1-3",0.1084 Folds and 0.1053 Folds and 0.1147 Folds
same,HBV DNA particle secretion was reduced by,"[6]; 1 μM, 3 days' incubation",42.1 ± 14.1%
same,activity at 10 µM,"[6]; HepG2.2.15 (figure 4d), 10 μM, read-out: Relative secreted HBV DNA level (Folds), AVERAGE",1.36%
same,activity at 10 µM,"[6]; HepG2.2.15, 10 μM, read-out: Relative secreted HBV DNA level (Folds), individual samples",1.96%
same,"Relative HBV transcript R1, Sample1-3","[7]; R1, single samples",0.9971 and 1.095 and 1.085
same,"Relative HBV transcript R2, AVERAGE",[7]; R2,1.083
same,"Relative HBV transcript R3, AVERAGE",[7]; R3,0.953
same,"Relative HBV transcript R3, Sample1-3","[7]; R3, single samples",0.9903 and 0.9758 and 0.8935
same,"Relative secreted HBsAg (Folds), AVERAGE",[8]; HBV 1.2x adr (figure 4i),0.996 Folds
same,"Relative secreted HBsAg (Folds), individual samples","[8]; HBV 1.2x adr, Sample1-2",1.007 Folds and 0.9855 Folds
same,"Cell viability(%), individual samples",[9],100.151% and 99.4005%
same,viability at 10 µM,in vitro [10]; AVERAGE,99.6%
same,viability at 10 µM,"in vitro [10]; individual samples, Sample1-3",99.3%
same,"Relative secreted HBsAg (Folds), AVERAGE","[11]; HepG2.2.15 (figure 4f), 10 μM",0.9837 Folds
same,"Relative secreted HBsAg (Folds), individual samples","[11]; HepG2.2.15, 10 μM, Sample1-2",0.9818 Folds and 0.9857 Folds
